In test [1] the target is T1, HIV-1 PR (Human immunodeficiency virus type 1 group M subtype B, UniProt P04585).
T1 construct: assayed as substrates of the HIV-1 protease (PR)
The experiment in a line: Enzyme assay with synthetic oligopeptide substrates (RP-HPLC). Type of test: biochemical, human immunodeficiency virus type 1 (HIV-1). To be noted: for kcat / Km: Table 3, revertant peptides, 37 °C, 1 h; for kcat: same buffer, peptides not cleaved at threshold given as estimated kcat < 0.01 s^−1; for cleavability by HIV-1 PR: threshold estimated kcat < 0.01 s^−1; for Km: 0.25 M potassium phosphate pH 5.6, 7.5% glycerol, 1 mM EDTA, 5 mM DTT, 2 M NaCl, RP-HPLC, Michaelis-Menten fit; for kcat/Km: Table 3, specificity constant calculated from the Km and kcat values.

For test [2], the target named is T1, HIV-1 PR. The conditions noted are these: values published previously, cited from earlier work.

Like-named read-outs stand apart in the source and are kept apart here.

One may read the kcat as the maximal rate divided by the concentration of active sites. One may read the Km as the substrate concentration at which the rate is half of its maximum. By kcat/Km is commonly meant the second-order rate constant that governs catalysis at low substrate concentration.

Regarding “KIVTCFGCGK [peptide 15, revertant NC-1 cleavage site peptide […]]”, on HIV-1 PR [1], the kcat is under 0.010 s⁻¹ and the “cleavability by HIV-1 PR” value was “did not yield a cleavable peptide”.

With “KIVKICFGCGKR [peptide 17, revertant NC-1 cleavage site peptide […]]”, on HIV-1 PR [1], the Km is 70 µM, the kcat was 0.025 s⁻¹ and the kcat/Km was 0.35 mM⁻¹ s⁻¹.

Regarding “RKIVICFGCGKR [peptide 16, revertant NC-1 cleavage site peptide […]]”, at HIV-1 PR [1], the Km is 35 µM, the kcat is 0.034 s⁻¹ and the kcat/Km is on record as 0.97 ^5 mM^−1 s^−1.

Consider KIVKCFNCGK [peptide 1], for which, on HIV-1 PR [2] (Table 2), the Km is 430 µM, the kcat is on record as 0.017 ^1 s^−1 and the kcat/Km is listed as 0.040 ^1 mM^−1 s^−1. For the same sequence, on HIV-1 PR [2] (Table 3, repeated from Table 2), the Km is 430 µM, the kcat was 0.017 s⁻¹ and the kcat/Km is 0.040 mM⁻¹ s⁻¹.

In the case of “KIVKCFGCGK [peptide 14, P1′ substituted NC-1 decapeptide […]]”, at HIV-1 PR [2] (Table 2), the Km was 1340 µM, the kcat was 0.002 ^1 s^−1 and the kcat/Km was 0.001 ^1 mM^−1 s^−1. Further, on HIV-1 PR [2] (Table 3, repeated from Table 2), the Km was 1340 µM, the kcat was 0.002 s⁻¹ and the kcat/Km was 0.001 mM⁻¹ s⁻¹.

Regarding “RKIVKCFGCIKR [peptide 18, revertant NC-1 cleavage site peptide […]]”, at HIV-1 PR [1], the kcat was under 0.010 s⁻¹ and the “cleavability by HIV-1 PR” value was “did not provide a cleavable peptide”.

For “RKIVICFGCIKR [peptide 19, revertant NC-1 cleavage site peptide […]]”, on HIV-1 PR [1], the Km was under 10 µM and the kcat is 0.015 s⁻¹.

With “KIVKCFFCGK [peptide 2, P1′ substituted NC-1 decapeptide […]]”, at HIV-1 PR [2] (Table 2), the Km is 20 µM, the kcat is reported as 0.900 ^1 s^−1 and the kcat/Km was 59.6 ^1 mM^−1 s^−1.

Values taken from publication PMC8227227 (Viruses, 2021).
